According to the supplement of paper PMC10307832:

Key:
Test in all cases: relative viability (nuclei count vs DMSO), 5 days (fraction); higher = more cells survive
[1] = compound: CN(C)C[C@@H]1CCn2cc(c3ccccc32)C2=C(C(=O)NC2=O)c2cn(c3ccccc23)CCO1 [Ruboxistaurin] + CS(=O)(=O)CCNCc1ccc(-c2ccc3ncnc(Nc4ccc(OCc5cccc(F)c5)c(Cl)c4)c3c2)o1 [Lapatinib] (partner 2 µM)
Outline: (§1)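 Values are medians from duplicate plates. Each reflects relative viability, defined as the nuclei count of treated wells over that of vehicle wells. Lung cancer cell lines in 1536-well plates were pin-tool dosed one day after seeding with one drug alone or with a fixed anchor-drug dose plus five library-drug doses (not always all listed) in √10 steps, then fixed, stained and imaged at 4× after 5 days.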

[2] = compound: CN(C)C[C@@H]1CCn2cc(c3ccccc32)C2=C(C(=O)NC2=O)c2cn(c3ccccc23)CCO1 [Ruboxistaurin] + Nc1nc2[nH]cc(CCc3ccc(C(=O)N[C@@H](CCC(=O)O)C(=O)O)cc3)c2c(=O)[nH]1 [Pemetrexed] (partner 0.2 µM)
Outline: as §1

[3] = compound: CN(C)C[C@@H]1CCn2cc(c3ccccc32)C2=C(C(=O)NC2=O)c2cn(c3ccccc23)CCO1 [Ruboxistaurin] + CC(C)C[C@H](NC(=O)[C@H](Cc1ccccc1)NC(=O)c1cnccn1)B(O)O [Bortezomib] (partner 0.002 µM)
Outline: as §1

[4] = compound: CN(C)C[C@@H]1CCn2cc(c3ccccc32)C2=C(C(=O)NC2=O)c2cn(c3ccccc23)CCO1 [Ruboxistaurin] + CC(=O)c1c(C)c2cnc(Nc3ccc(N4CCNCC4)cn3)nc2n(C2CCCC2)c1=O [Palbociclib] (partner 0.5 µM)
Outline: as §1

[5] = compound: CN(C)C[C@@H]1CCn2cc(c3ccccc32)C2=C(C(=O)NC2=O)c2cn(c3ccccc23)CCO1 [Ruboxistaurin] + CS(=O)(=O)N1CCN(Cc2cc3nc(-c4cccc5[nH]ncc45)nc(N4CCOCC4)c3s2)CC1 [Pictilisib] (partner 1 µM)
Outline: as §1

Cell Line	relative viability ([1]; first compound 0.08 µM)	relative viability ([1]; first compound 0.8 µM)	relative viability ([1]; first compound 2.53 µM)	relative viability ([1]; first compound 8 µM)	relative viability ([2]; first compound 0.08 µM)	relative viability ([2]; first compound 0.8 µM)	relative viability ([2]; first compound 2.53 µM)	relative viability ([2]; first compound 8 µM)	relative viability ([3]; first compound 0.08 µM)	relative viability ([3]; first compound 0.8 µM)	relative viability ([3]; first compound 2.53 µM)	relative viability ([3]; first compound 8 µM)	relative viability ([4]; first compound 0.08 µM)	relative viability ([4]; first compound 0.8 µM)	relative viability ([4]; first compound 2.53 µM)	relative viability ([4]; first compound 8 µM)	relative viability ([5]; first compound 0.08 µM)	relative viability ([5]; first compound 0.8 µM)	relative viability ([5]; first compound 2.53 µM)	relative viability ([5]; first compound 8 µM)
NCI-H1915	1.02	0.918	0.891	0.967	0.508	0.439	0.443	0.426	0.985	0.928	0.985	0.896	0.542	0.482	0.536	0.421	0.978	0.839	0.924	0.845
NCI-H1975	0.93	0.821	0.906	0.826	0.328	0.276	0.301	0.286	0.392	0.311	0.424	0.392	0.648	0.512	0.637	0.605	0.302	0.235	0.252	0.211
NCI-H1993	0.837	0.789	0.848	0.808	0.482	0.565	0.633	0.577	1.3	0.925	1.01	0.83	0.716	0.666	0.712	0.556	0.828	0.742	0.763	0.697
NCI-H2009	1.02	0.956	0.931	1.13	1.05	1.08	1.02	1.07	1.04	0.941	1.14	1.41	0.218	0.234	0.242	0.221	0.819	0.796	0.825	0.552
NCI-H2023	0.862	0.679	0.913	0.628	0.228	0.188	0.224	0.151	1.1	0.898	1.06	0.819	0.381	0.31	0.333	0.393	0.243	0.179	0.194	0.156
NCI-H2085	0.902	0.76	0.754	0.721	1.07	0.868	0.944	0.904	1.07	0.987	1.09	1.17	0.472	0.479	0.452	0.56	0.447	0.419	0.409	0.324
